Measurements from the supplement of paper PMC13207355.

Assays:
Conditions in all cases: exposure time: 72 h
E13 [1] = patient-derived glioblastoma stem cells of classical subtype; assay: surviving fraction (nuclei count normalised to DMSO); higher = more cells surviving (less toxic)
E21 [2] = patient-derived glioblastoma stem cells of mesenchymal subtype; assay: as above
E28 [3] = patient-derived glioblastoma stem cells of classical subtype; assay: as above
E31 [4] = patient-derived glioblastoma stem cells of proneural subtype; assay: as above
E34 [5] = patient-derived glioblastoma stem cells of proneural subtype; assay: as above
E57 [6] = patient-derived glioblastoma stem cells of mesenchymal subtype; assay: as above
FT3469 [7] = normal neural stem cell line; assay: as above
E13 [8] = assay: phenotypic distance (Euclidean, principal components) from DMSO controls (arbitrary units); higher = stronger morphological change
E21 [9] = assay: as above
E28 [10] = assay: as above
E31 [11] = assay: as above
E34 [12] = assay: as above
E57 [13] = assay: as above
FT3469 [14] = assay: as above
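Throughout, for phenotypic distance (Euclidean, principal components) from DMSO controls: cell Painting imaging in 384-well plates, CellProfiler features reduced to at least 20 principal components, Euclidean distance versus same-plate DMSO vehicle wells (0.1% v/v), median over six images per well.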
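Throughout, for surviving fraction (nuclei count normalised to DMSO): nuclei counted by high-content imaging of Hoechst-stained cells in laminin-coated 384-well plates, relative to 0.1% DMSO vehicle wells, with staurosporine as cell-death control.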

C/C=C(\C)C(=O)N[C@@H](c1ccccc1)[C@@H](O)C(=O)O[C@H]1C[C@@]2(O)[C@@H](OC(=O)c3ccccc3)[C@@H]3[C@]4(OC(C)=O)CO[C@@H]4C[C@H](O)[C@@]3(C)C(=O)[C@H](OC(C)=O)C(=C1C)C2(C)C [Cephalomannine]
Conditions	phenotypic distance	surviving fraction
E13 [1], 4.11523 nM	–	0.308
E13 [1], 12.34567901 nM	–	0.245
E13 [1], 37.037 nM	–	0.27
E13 [1], 111.1111111 nM	–	0.137
E13 [1], 333.333 nM	–	0.171
E13 [1], 1000 nM	–	0.171
E13 [1], 3000 nM	–	0.19
E13 [8], 4.11523 nM	4.23	–
E13 [8], 12.34567901 nM	4.51	–
E13 [8], 37.037 nM	4.54	–
E13 [8], 111.1111111 nM	6.45	–
E13 [8], 333.333 nM	5.33	–
E13 [8], 1000 nM	5.74	–
E13 [8], 3000 nM	5.58	–
E21 [2], 4.11523 nM	–	0.335
E21 [2], 12.34567901 nM	–	0.327
E21 [2], 37.037 nM	–	0.209
E21 [2], 111.1111111 nM	–	0.246
E21 [2], 333.333 nM	–	0.213
E21 [2], 1000 nM	–	0.214
E21 [2], 3000 nM	–	0.198
E21 [9], 4.11523 nM	4.99	–
E21 [9], 12.34567901 nM	5.05	–
E21 [9], 37.037 nM	5.62	–
E21 [9], 111.1111111 nM	6.2	–
E21 [9], 333.333 nM	5.44	–
E21 [9], 1000 nM	6.44	–
E21 [9], 3000 nM	7.14	–
E28 [3], 4.11523 nM	–	0.515
E28 [3], 12.34567901 nM	–	0.557
E28 [3], 37.037 nM	–	0.304
E28 [3], 111.1111111 nM	–	0.357
E28 [3], 333.333 nM	–	0.302
E28 [3], 1000 nM	–	0.286
E28 [3], 3000 nM	–	0.249
E28 [10], 4.11523 nM	3.22	–
E28 [10], 12.34567901 nM	3.3	–
E28 [10], 37.037 nM	3.65	–
E28 [10], 111.1111111 nM	3.5	–
E28 [10], 333.333 nM	3.82	–
E28 [10], 1000 nM	3.7	–
E28 [10], 3000 nM	4.32	–
E31 [4], 4.11523 nM	–	0.23
E31 [4], 12.34567901 nM	–	0.132
E31 [4], 37.037 nM	–	0.12
E31 [4], 111.1111111 nM	–	0.11
E31 [4], 333.333 nM	–	0.0834
E31 [4], 1000 nM	–	0.12
E31 [4], 3000 nM	–	0.148
E31 [11], 4.11523 nM	3.6	–
E31 [11], 12.34567901 nM	4.39	–
E31 [11], 37.037 nM	3.82	–
E31 [11], 111.1111111 nM	4.56	–
E31 [11], 333.333 nM	4.66	–
E31 [11], 1000 nM	3.37	–
E31 [11], 3000 nM	3.61	–
E34 [5], 4.11523 nM	–	0.497
E34 [5], 12.34567901 nM	–	0.442
E34 [5], 37.037 nM	–	0.356
E34 [5], 111.1111111 nM	–	0.284
E34 [5], 333.333 nM	–	0.293
E34 [5], 1000 nM	–	0.356
E34 [5], 3000 nM	–	0.382
E34 [12], 4.11523 nM	3.55	–
E34 [12], 12.34567901 nM	3.84	–
E34 [12], 37.037 nM	3.81	–
E34 [12], 111.1111111 nM	3.17	–
E34 [12], 333.333 nM	3.79	–
E34 [12], 1000 nM	3.73	–
E34 [12], 3000 nM	3.93	–
E57 [6], 4.11523 nM	–	0.156
E57 [6], 12.34567901 nM	–	0.125
E57 [6], 37.037 nM	–	0.0853
E57 [6], 111.1111111 nM	–	0.0579
E57 [6], 333.333 nM	–	0.0628
E57 [6], 1000 nM	–	0.0598
E57 [6], 3000 nM	–	0.0598
E57 [13], 4.11523 nM	5.45	–
E57 [13], 12.34567901 nM	5.1	–
E57 [13], 37.037 nM	5.59	–
E57 [13], 111.1111111 nM	5.43	–
E57 [13], 333.333 nM	5.14	–
E57 [13], 1000 nM	5.43	–
E57 [13], 3000 nM	5.27	–
FT3469 [7], 4.11523 nM	–	0.62
FT3469 [7], 12.34567901 nM	–	0.646
FT3469 [7], 37.037 nM	–	0.577
FT3469 [7], 111.1111111 nM	–	0.441
FT3469 [7], 333.333 nM	–	0.378
FT3469 [7], 1000 nM	–	0.465
FT3469 [7], 3000 nM	–	0.449
FT3469 [14], 4.11523 nM	2.71	–
FT3469 [14], 12.34567901 nM	2.83	–
FT3469 [14], 37.037 nM	3.01	–
FT3469 [14], 111.1111111 nM	3.67	–
FT3469 [14], 333.333 nM	3.37	–
FT3469 [14], 1000 nM	3.99	–
FT3469 [14], 3000 nM	4.09	–

N=C(NCCCCCCNC(=N)NC(=N)Nc1ccc(Cl)cc1)NC(=N)Nc1ccc(Cl)cc1 [Chlorhexidine]
Conditions	phenotypic distance	surviving fraction
E13 [1], 4.1 nM	–	1.03
E13 [1], 12.3 nM	–	1.05
E13 [1], 37 nM	–	0.948
E13 [1], 111.1 nM	–	1.01
E13 [1], 333.3 nM	–	0.969
E13 [1], 1000 nM	–	0.943
E13 [1], 3000 nM	–	0.409
E13 [8], 4.1 nM	0.429	–
E13 [8], 12.3 nM	1.39	–
E13 [8], 37 nM	0.262	–
E13 [8], 111.1 nM	2.5	–
E13 [8], 333.3 nM	0.491	–
E13 [8], 1000 nM	0.464	–
E13 [8], 3000 nM	3.49	–
E21 [2], 4.1 nM	–	0.973
E21 [2], 12.3 nM	–	1.01
E21 [2], 37 nM	–	0.964
E21 [2], 111.1 nM	–	0.946
E21 [2], 333.3 nM	–	0.941
E21 [2], 1000 nM	–	0.899
E21 [2], 3000 nM	–	0.259
E21 [9], 4.1 nM	0.562	–
E21 [9], 12.3 nM	0.828	–
E21 [9], 37 nM	0.696	–
E21 [9], 111.1 nM	0.95	–
E21 [9], 333.3 nM	0.783	–
E21 [9], 1000 nM	0.943	–
E21 [9], 3000 nM	6.35	–
E28 [3], 4.1 nM	–	1.05
E28 [3], 12.3 nM	–	1.13
E28 [3], 37 nM	–	1.1
E28 [3], 111.1 nM	–	1.16
E28 [3], 333.3 nM	–	1.11
E28 [3], 1000 nM	–	0.694
E28 [3], 3000 nM	–	0.289
E28 [10], 4.1 nM	0.971	–
E28 [10], 12.3 nM	0.644	–
E28 [10], 37 nM	0.865	–
E28 [10], 111.1 nM	0.807	–
E28 [10], 333.3 nM	0.749	–
E28 [10], 1000 nM	1.41	–
E28 [10], 3000 nM	3.14	–
E31 [4], 4.1 nM	–	0.921
E31 [4], 12.3 nM	–	0.969
E31 [4], 37 nM	–	1.07
E31 [4], 111.1 nM	–	1.04
E31 [4], 333.3 nM	–	0.889
E31 [4], 1000 nM	–	0.765
E31 [4], 3000 nM	–	0.401
E31 [11], 4.1 nM	0.524	–
E31 [11], 12.3 nM	0.525	–
E31 [11], 37 nM	0.809	–
E31 [11], 111.1 nM	0.944	–
E31 [11], 333.3 nM	1.22	–
E31 [11], 1000 nM	2.29	–
E31 [11], 3000 nM	2.76	–
E34 [5], 4.1 nM	–	0.914
E34 [5], 12.3 nM	–	0.993
E34 [5], 37 nM	–	0.955
E34 [5], 111.1 nM	–	0.752
E34 [5], 333.3 nM	–	1.03
E34 [5], 1000 nM	–	0.892
E34 [5], 3000 nM	–	0.659
E34 [12], 4.1 nM	0.526	–
E34 [12], 12.3 nM	0.799	–
E34 [12], 37 nM	0.756	–
E34 [12], 111.1 nM	0.826	–
E34 [12], 333.3 nM	0.445	–
E34 [12], 1000 nM	0.747	–
E34 [12], 3000 nM	3.01	–
E57 [6], 4.1 nM	–	0.972
E57 [6], 12.3 nM	–	1.03
E57 [6], 37 nM	–	0.962
E57 [6], 111.1 nM	–	1.03
E57 [6], 333.3 nM	–	0.967
E57 [6], 1000 nM	–	0.838
E57 [6], 3000 nM	–	0.307
E57 [13], 4.1 nM	0.332	–
E57 [13], 12.3 nM	0.353	–
E57 [13], 37 nM	0.497	–
E57 [13], 111.1 nM	0.85	–
E57 [13], 333.3 nM	0.64	–
E57 [13], 1000 nM	1.98	–
E57 [13], 3000 nM	4.85	–
FT3469 [7], 4.1 nM	–	1.05
FT3469 [7], 12.3 nM	–	0.955
FT3469 [7], 37 nM	–	1.1
FT3469 [7], 111.1 nM	–	0.981
FT3469 [7], 333.3 nM	–	0.883
FT3469 [7], 1000 nM	–	0.806
FT3469 [7], 3000 nM	–	0.537
FT3469 [14], 4.1 nM	1.53	–
FT3469 [14], 12.3 nM	0.951	–
FT3469 [14], 37 nM	0.654	–
FT3469 [14], 111.1 nM	0.806	–
FT3469 [14], 333.3 nM	0.554	–
FT3469 [14], 1000 nM	1.03	–
FT3469 [14], 3000 nM	2.68	–
